# Molecular target: Glycogen synthase kinase-3 beta (Homo sapiens, UniProt P49841)
# Details: not given
# Sequence of Glycogen synthase kinase-3 beta (P49841 whole entry, looked up): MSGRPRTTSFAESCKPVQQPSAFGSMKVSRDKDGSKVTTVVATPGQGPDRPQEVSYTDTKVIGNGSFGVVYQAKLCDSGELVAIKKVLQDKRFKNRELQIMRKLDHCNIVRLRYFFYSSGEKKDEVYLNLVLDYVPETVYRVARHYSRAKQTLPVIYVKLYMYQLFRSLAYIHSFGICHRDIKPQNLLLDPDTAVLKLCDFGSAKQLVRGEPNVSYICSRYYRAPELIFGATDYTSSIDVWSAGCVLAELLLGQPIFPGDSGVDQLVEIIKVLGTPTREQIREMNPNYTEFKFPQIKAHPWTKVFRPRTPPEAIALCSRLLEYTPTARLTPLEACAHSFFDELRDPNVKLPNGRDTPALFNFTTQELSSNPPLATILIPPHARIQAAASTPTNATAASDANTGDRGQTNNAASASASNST
row,ΔTm,SMILES
1,0.1 °C,O=C(O)/C=C/c1cc(CO)ccc1CO
2,-1.2 °C,CC(C)c1cc(/C=C(\C#N)C(=O)NCCCc2ccccc2)cc(C(C)C)c1O
3,-4 °C,CC(C)(C)c1cc(C=C2C(=O)C=CC2=O)cc(C(C)(C)C)c1O
4,0.3 °C,CC(C)n1cnc2c(NCc3ccccc3O)nc(NCCCO)nc21

row,SMILES,ΔTm
1,O=S(=O)(NCCNC/C=C/c1ccc(Br)cc1)c1cccc2cnccc12,-0.6 °C
2,"COC(=O)[C@]1(O)C[C@@H]2O[C@@]1(C)n1c3ccccc3c3c4c(c5c6ccccc6n2c5c31)C(=O)NC4 (single isomer, unassigned)",4.5 °C

# Molecular target: Myosin light chain kinase, smooth muscle (Homo sapiens, UniProt Q15746)
# Test: Binding affinity at MLCK
# Details: not given
row,SMILES,Ki
1,O=S(=O)(NCCNC/C=C/c1ccc(Br)cc1)c1cccc2cnccc12,28300 nM

# Molecular target: Casein kinase I isoform gamma-1 (Homo sapiens) (UniProt Q9HCP0)
# Details: not given
# Sequence of Casein kinase I isoform gamma-1 (Homo sapiens) (Q9HCP0 whole entry, looked up, canonical isoform): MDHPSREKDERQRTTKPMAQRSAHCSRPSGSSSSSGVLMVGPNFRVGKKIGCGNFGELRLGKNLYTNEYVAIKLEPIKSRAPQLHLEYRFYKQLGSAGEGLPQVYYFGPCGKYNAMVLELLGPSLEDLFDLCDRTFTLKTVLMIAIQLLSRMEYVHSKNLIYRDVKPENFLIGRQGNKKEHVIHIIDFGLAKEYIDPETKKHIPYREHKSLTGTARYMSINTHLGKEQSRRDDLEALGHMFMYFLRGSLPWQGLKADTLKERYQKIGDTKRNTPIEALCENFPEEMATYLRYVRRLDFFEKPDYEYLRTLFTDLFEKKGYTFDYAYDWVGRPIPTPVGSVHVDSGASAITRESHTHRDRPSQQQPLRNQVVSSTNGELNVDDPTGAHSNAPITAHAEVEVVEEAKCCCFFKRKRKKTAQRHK
row,ΔTm,SMILES
1,0.7 °C,O=C(O)/C=C/c1cc(CO)ccc1CO
2,0.8 °C,CC(C)c1cc(/C=C(\C#N)C(=O)NCCCc2ccccc2)cc(C(C)C)c1O
3,0.9 °C,CC(C)(C)c1cc(C=C2C(=O)C=CC2=O)cc(C(C)(C)C)c1O
4,0.5 °C,CC(C)n1cnc2c(NCc3ccccc3O)nc(NCCCO)nc21

row,SMILES,ΔTm
1,O=S(=O)(NCCNC/C=C/c1ccc(Br)cc1)c1cccc2cnccc12,0.6 °C
2,"COC(=O)[C@]1(O)C[C@@H]2O[C@@]1(C)n1c3ccccc3c3c4c(c5c6ccccc6n2c5c31)C(=O)NC4 (single isomer, unassigned)",0.6 °C

# Molecular target: Serine/threonine-protein kinase PAK 6 (Homo sapiens) (UniProt Q9NQU5)
# Details: not given
# Sequence of Serine/threonine-protein kinase PAK 6 (Homo sapiens) (Q9NQU5 whole entry, looked up): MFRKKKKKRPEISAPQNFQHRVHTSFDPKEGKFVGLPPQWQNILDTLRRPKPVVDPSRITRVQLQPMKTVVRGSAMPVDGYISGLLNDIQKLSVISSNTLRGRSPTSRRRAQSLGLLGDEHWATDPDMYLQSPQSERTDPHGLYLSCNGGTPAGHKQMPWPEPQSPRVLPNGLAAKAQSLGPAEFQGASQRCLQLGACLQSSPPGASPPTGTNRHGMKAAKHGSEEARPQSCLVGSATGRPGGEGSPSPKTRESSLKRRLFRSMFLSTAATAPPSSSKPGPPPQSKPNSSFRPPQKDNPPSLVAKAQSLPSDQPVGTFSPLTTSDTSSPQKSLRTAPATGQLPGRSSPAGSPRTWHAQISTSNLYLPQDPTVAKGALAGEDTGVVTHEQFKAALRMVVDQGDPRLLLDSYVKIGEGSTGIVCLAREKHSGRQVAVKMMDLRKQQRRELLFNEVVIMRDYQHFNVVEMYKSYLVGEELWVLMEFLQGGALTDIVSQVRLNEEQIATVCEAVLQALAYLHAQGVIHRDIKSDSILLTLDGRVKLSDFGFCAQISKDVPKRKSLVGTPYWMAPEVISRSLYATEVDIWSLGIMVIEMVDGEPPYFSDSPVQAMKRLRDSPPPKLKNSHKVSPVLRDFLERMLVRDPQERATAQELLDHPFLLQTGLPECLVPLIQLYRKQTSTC
row,ΔTm,SMILES
1,-0.4 °C,O=C(O)/C=C/c1cc(CO)ccc1CO
2,0.1 °C,CC(C)c1cc(/C=C(\C#N)C(=O)NCCCc2ccccc2)cc(C(C)C)c1O
3,-2.5 °C,CC(C)(C)c1cc(C=C2C(=O)C=CC2=O)cc(C(C)(C)C)c1O
4,0.3 °C,CC(C)n1cnc2c(NCc3ccccc3O)nc(NCCCO)nc21

row,SMILES,ΔTm
1,O=S(=O)(NCCNC/C=C/c1ccc(Br)cc1)c1cccc2cnccc12,1.5 °C
2,"COC(=O)[C@]1(O)C[C@@H]2O[C@@]1(C)n1c3ccccc3c3c4c(c5c6ccccc6n2c5c31)C(=O)NC4 (single isomer, unassigned)",9.7 °C

# Molecular target: Cyclin-dependent kinase-like 1 (Homo sapiens) (UniProt Q00532)
# Details: not given
# Sequence of Cyclin-dependent kinase-like 1 (Homo sapiens) (Q00532 whole entry): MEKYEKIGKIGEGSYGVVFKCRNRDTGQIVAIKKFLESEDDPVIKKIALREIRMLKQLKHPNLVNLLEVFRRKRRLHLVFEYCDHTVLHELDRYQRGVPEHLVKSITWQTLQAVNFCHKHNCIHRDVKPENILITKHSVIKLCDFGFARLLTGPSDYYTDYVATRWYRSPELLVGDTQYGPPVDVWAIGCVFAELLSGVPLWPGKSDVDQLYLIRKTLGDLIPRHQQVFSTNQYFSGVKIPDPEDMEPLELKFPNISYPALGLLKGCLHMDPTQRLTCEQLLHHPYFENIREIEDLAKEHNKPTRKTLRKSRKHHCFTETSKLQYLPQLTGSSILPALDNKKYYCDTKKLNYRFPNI
row,ΔTm,SMILES
1,-0.1 °C,O=C(O)/C=C/c1cc(CO)ccc1CO
2,1.2 °C,CC(C)c1cc(/C=C(\C#N)C(=O)NCCCc2ccccc2)cc(C(C)C)c1O
3,-5.5 °C,CC(C)(C)c1cc(C=C2C(=O)C=CC2=O)cc(C(C)(C)C)c1O
4,0.1 °C,CC(C)n1cnc2c(NCc3ccccc3O)nc(NCCCO)nc21

row,SMILES,ΔTm
1,O=S(=O)(NCCNC/C=C/c1ccc(Br)cc1)c1cccc2cnccc12,-0.1 °C
2,"COC(=O)[C@]1(O)C[C@@H]2O[C@@]1(C)n1c3ccccc3c3c4c(c5c6ccccc6n2c5c31)C(=O)NC4 (single isomer, unassigned)",6.9 °C

# Molecular target: Epidermal growth factor receptor (Homo sapiens, UniProt P00533)
# Details: not given
row,IC50,SMILES
1,780 nM,O=C(O)/C=C/c1cc(CO)ccc1CO

# Molecular target: Serine/threonine-protein kinase VRK2 (Homo sapiens) (UniProt Q86Y07)
# Details: not given
# Sequence of Serine/threonine-protein kinase VRK2 (Homo sapiens) (Q86Y07 whole entry): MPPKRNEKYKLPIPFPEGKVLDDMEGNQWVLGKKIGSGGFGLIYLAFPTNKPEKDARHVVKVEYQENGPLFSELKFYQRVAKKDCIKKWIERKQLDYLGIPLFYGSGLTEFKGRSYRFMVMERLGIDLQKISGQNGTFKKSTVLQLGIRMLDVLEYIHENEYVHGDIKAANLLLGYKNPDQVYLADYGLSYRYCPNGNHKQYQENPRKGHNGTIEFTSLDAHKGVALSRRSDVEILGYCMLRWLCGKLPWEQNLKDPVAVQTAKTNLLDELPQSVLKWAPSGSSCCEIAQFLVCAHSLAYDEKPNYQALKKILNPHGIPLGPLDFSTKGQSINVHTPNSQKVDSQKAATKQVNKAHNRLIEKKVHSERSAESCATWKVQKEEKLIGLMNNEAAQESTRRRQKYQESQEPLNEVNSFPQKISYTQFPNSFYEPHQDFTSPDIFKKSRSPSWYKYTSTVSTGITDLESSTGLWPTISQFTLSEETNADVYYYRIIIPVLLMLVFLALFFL
row,ΔTm,SMILES
1,0.3 °C,O=C(O)/C=C/c1cc(CO)ccc1CO
2,0.7 °C,CC(C)c1cc(/C=C(\C#N)C(=O)NCCCc2ccccc2)cc(C(C)C)c1O
3,0 °C,CC(C)(C)c1cc(C=C2C(=O)C=CC2=O)cc(C(C)(C)C)c1O
4,0.6 °C,CC(C)n1cnc2c(NCc3ccccc3O)nc(NCCCO)nc21

row,SMILES,ΔTm
1,O=S(=O)(NCCNC/C=C/c1ccc(Br)cc1)c1cccc2cnccc12,0.1 °C
2,"COC(=O)[C@]1(O)C[C@@H]2O[C@@]1(C)n1c3ccccc3c3c4c(c5c6ccccc6n2c5c31)C(=O)NC4 (single isomer, unassigned)",-0.2 °C

# Molecular target: Vascular endothelial growth factor receptor 2 (Homo sapiens, UniProt P35968)
# Details: not given
row,IC50,SMILES
1,700 nM,CC(C)c1cc(/C=C(\C#N)C(=O)NCCCc2ccccc2)cc(C(C)C)c1O

# Molecular target: Serine/threonine-protein kinase 16 (Homo sapiens) (UniProt O75716)
# Details: not given
# Sequence of Serine/threonine-protein kinase 16 (Homo sapiens) (O75716 whole entry): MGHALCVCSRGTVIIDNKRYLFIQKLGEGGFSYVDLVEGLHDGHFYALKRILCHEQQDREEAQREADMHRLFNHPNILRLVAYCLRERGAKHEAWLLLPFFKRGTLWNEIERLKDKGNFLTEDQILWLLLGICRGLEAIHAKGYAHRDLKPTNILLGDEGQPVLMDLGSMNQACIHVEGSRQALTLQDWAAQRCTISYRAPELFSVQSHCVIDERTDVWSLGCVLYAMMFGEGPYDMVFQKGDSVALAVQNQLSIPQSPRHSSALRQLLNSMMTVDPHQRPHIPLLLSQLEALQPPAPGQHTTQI
row,ΔTm,SMILES
1,0.3 °C,O=C(O)/C=C/c1cc(CO)ccc1CO
2,0.5 °C,CC(C)c1cc(/C=C(\C#N)C(=O)NCCCc2ccccc2)cc(C(C)C)c1O
3,0.2 °C,CC(C)(C)c1cc(C=C2C(=O)C=CC2=O)cc(C(C)(C)C)c1O
4,1.2 °C,CC(C)n1cnc2c(NCc3ccccc3O)nc(NCCCO)nc21

row,SMILES,ΔTm
1,O=S(=O)(NCCNC/C=C/c1ccc(Br)cc1)c1cccc2cnccc12,0.5 °C
2,"COC(=O)[C@]1(O)C[C@@H]2O[C@@]1(C)n1c3ccccc3c3c4c(c5c6ccccc6n2c5c31)C(=O)NC4 (single isomer, unassigned)",2.3 °C

# Molecular target: not listed separately
# Test: Binding affinity at PKC
# Details: not given
row,SMILES,Ki
1,O=S(=O)(NCCNC/C=C/c1ccc(Br)cc1)c1cccc2cnccc12,31700 nM

# Molecular target: Proto-oncogene tyrosine-protein kinase Src (Homo sapiens, UniProt P12931)
# Test: Inhibition of Src
# Details: read-out: IC50
# Sequence of Proto-oncogene tyrosine-protein kinase Src (P12931 2-536 limits assumed): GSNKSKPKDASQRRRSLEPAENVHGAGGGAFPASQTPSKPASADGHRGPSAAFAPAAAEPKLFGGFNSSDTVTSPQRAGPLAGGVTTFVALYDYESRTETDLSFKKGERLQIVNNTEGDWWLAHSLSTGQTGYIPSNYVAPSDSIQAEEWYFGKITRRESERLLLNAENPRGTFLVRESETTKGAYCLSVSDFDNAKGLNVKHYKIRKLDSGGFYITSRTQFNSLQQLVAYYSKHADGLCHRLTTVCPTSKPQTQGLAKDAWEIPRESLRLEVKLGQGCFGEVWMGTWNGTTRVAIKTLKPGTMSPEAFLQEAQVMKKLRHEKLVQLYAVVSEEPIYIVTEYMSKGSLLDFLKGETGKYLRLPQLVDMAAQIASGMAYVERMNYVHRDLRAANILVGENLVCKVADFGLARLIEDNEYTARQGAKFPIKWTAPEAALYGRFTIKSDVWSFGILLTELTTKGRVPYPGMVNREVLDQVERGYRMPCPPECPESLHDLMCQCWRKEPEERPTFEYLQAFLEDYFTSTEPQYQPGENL
row,IC50,SMILES
1,2200 nM,CC(C)(C)c1cc(C=C2C(=O)C=CC2=O)cc(C(C)(C)C)c1O

# Molecular target: Calcium/calmodulin-dependent protein kinase kinase 2 (Homo sapiens, UniProt Q96RR4)
# Test: Inhibition of CaM-KKbeta
# Details: not given
row,SMILES,Ki
1,O=S(=O)(NCCNC/C=C/c1ccc(Br)cc1)c1cccc2cnccc12,29700 nM

# Molecular target: Calcium/calmodulin-dependent protein kinase type II subunit beta (Homo sapiens) (UniProt Q13554)
# Details: not given
# Sequence of Calcium/calmodulin-dependent protein kinase type II subunit beta (Homo sapiens) (Q13554 whole entry): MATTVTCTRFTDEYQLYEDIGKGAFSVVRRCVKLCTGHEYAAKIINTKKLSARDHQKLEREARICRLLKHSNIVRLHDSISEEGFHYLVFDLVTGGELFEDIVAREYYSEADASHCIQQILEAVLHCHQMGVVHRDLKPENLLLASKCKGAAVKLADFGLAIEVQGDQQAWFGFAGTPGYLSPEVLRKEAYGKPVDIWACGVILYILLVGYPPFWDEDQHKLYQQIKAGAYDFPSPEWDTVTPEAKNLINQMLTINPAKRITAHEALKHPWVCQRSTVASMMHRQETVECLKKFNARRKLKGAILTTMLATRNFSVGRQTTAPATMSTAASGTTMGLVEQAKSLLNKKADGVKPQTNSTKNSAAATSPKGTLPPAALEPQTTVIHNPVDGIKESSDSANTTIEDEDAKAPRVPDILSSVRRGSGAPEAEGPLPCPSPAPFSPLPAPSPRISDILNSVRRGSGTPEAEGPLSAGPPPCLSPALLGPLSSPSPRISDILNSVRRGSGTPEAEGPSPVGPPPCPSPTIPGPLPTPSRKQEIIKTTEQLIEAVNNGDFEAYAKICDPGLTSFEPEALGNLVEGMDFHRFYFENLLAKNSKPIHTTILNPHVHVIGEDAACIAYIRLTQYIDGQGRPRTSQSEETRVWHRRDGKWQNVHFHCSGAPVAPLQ
row,ΔTm,SMILES
1,0.4 °C,O=C(O)/C=C/c1cc(CO)ccc1CO
2,1.5 °C,CC(C)c1cc(/C=C(\C#N)C(=O)NCCCc2ccccc2)cc(C(C)C)c1O
3,-0.3 °C,CC(C)(C)c1cc(C=C2C(=O)C=CC2=O)cc(C(C)(C)C)c1O
4,0.3 °C,CC(C)n1cnc2c(NCc3ccccc3O)nc(NCCCO)nc21

row,SMILES,ΔTm
1,O=S(=O)(NCCNC/C=C/c1ccc(Br)cc1)c1cccc2cnccc12,-0.2 °C
2,"COC(=O)[C@]1(O)C[C@@H]2O[C@@]1(C)n1c3ccccc3c3c4c(c5c6ccccc6n2c5c31)C(=O)NC4 (single isomer, unassigned)",2.7 °C

# Molecular target: T1, Serine/threonine-protein kinase PLK4 (Homo sapiens) (UniProt O00444)
# T1 sequence (whole entry): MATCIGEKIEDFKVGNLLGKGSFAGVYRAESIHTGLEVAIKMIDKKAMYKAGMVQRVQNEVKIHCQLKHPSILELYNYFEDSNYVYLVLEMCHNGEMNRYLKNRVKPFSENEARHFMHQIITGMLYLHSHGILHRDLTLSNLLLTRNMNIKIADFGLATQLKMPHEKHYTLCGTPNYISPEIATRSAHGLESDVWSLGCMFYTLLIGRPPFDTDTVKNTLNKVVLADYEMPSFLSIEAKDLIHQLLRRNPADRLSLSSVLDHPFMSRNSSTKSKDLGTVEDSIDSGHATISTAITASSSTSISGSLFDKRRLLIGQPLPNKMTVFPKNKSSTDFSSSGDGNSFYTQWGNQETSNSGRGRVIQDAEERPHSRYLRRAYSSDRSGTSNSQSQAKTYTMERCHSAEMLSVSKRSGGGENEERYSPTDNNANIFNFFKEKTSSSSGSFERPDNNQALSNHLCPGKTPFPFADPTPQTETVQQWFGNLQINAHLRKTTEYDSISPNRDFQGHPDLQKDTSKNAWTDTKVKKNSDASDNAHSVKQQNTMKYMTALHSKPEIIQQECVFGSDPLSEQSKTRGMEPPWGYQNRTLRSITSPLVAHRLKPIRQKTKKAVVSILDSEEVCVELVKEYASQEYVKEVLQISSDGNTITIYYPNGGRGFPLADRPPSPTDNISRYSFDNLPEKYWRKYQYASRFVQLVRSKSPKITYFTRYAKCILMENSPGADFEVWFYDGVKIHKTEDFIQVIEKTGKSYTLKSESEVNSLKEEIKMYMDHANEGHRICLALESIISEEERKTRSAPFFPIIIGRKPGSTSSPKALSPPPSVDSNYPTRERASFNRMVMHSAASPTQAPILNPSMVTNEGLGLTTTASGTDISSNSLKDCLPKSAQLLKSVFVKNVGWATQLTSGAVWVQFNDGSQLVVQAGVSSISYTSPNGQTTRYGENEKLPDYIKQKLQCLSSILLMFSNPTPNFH
# Details: not given
row,ΔTm,SMILES
1,1 °C,O=C(O)/C=C/c1cc(CO)ccc1CO
2,0.9 °C,CC(C)c1cc(/C=C(\C#N)C(=O)NCCCc2ccccc2)cc(C(C)C)c1O
3,1 °C,CC(C)(C)c1cc(C=C2C(=O)C=CC2=O)cc(C(C)(C)C)c1O
4,0.1 °C,CC(C)n1cnc2c(NCc3ccccc3O)nc(NCCCO)nc21

row,SMILES,ΔTm
1,O=S(=O)(NCCNC/C=C/c1ccc(Br)cc1)c1cccc2cnccc12,1.1 °C
2,"COC(=O)[C@]1(O)C[C@@H]2O[C@@]1(C)n1c3ccccc3c3c4c(c5c6ccccc6n2c5c31)C(=O)NC4 (single isomer, unassigned)",12.5 °C

# Molecular target: Serine/threonine-protein kinase PAK 4 (Homo sapiens) (UniProt O96013)
# Details: not given
# Sequence of Serine/threonine-protein kinase PAK 4 (Homo sapiens) (O96013 whole entry, looked up): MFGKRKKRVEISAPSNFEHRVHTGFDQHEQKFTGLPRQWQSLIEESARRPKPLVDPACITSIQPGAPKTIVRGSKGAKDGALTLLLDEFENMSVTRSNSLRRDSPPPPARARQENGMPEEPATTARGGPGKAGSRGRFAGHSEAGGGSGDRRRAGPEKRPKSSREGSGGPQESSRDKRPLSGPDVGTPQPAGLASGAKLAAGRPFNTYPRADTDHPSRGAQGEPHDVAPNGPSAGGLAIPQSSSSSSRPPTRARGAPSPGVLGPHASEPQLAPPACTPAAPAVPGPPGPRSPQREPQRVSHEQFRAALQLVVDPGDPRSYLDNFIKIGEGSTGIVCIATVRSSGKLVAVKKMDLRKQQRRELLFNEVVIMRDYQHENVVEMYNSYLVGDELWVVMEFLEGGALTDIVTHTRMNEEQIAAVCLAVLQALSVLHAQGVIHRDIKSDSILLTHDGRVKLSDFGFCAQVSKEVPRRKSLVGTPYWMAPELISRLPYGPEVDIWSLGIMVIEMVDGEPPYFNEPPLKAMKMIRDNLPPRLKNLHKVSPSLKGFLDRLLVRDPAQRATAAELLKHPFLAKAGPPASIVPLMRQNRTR
row,ΔTm,SMILES
1,0.1 °C,O=C(O)/C=C/c1cc(CO)ccc1CO
2,1.2 °C,CC(C)c1cc(/C=C(\C#N)C(=O)NCCCc2ccccc2)cc(C(C)C)c1O
3,1.5 °C,CC(C)(C)c1cc(C=C2C(=O)C=CC2=O)cc(C(C)(C)C)c1O
4,0.5 °C,CC(C)n1cnc2c(NCc3ccccc3O)nc(NCCCO)nc21

row,SMILES,ΔTm
1,O=S(=O)(NCCNC/C=C/c1ccc(Br)cc1)c1cccc2cnccc12,1 °C
2,"COC(=O)[C@]1(O)C[C@@H]2O[C@@]1(C)n1c3ccccc3c3c4c(c5c6ccccc6n2c5c31)C(=O)NC4 (single isomer, unassigned)",3.9 °C

# Molecular target: Cyclin-dependent kinase 2 (Homo sapiens, UniProt P24941)
# Details: not given
row,IC50,SMILES
1,80 nM,CC(C)n1cnc2c(NCc3ccccc3O)nc(NCCCO)nc21

# Molecular target: Serine/threonine-protein kinase 38 (Homo sapiens) (UniProt Q15208)
# Details: not given
# Sequence of Serine/threonine-protein kinase 38 (Homo sapiens) (Q15208 2-465 limits assumed): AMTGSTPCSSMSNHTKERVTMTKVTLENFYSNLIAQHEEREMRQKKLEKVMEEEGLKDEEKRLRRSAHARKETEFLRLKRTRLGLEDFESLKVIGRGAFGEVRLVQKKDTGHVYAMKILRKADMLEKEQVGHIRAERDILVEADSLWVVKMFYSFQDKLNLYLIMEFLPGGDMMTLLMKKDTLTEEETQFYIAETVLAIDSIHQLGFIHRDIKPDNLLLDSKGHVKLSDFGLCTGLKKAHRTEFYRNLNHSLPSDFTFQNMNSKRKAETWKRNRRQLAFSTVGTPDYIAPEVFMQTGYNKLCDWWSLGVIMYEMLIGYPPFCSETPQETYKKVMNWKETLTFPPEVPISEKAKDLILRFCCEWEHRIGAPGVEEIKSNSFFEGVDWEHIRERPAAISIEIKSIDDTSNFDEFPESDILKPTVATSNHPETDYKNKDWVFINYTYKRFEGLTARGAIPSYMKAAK
row,ΔTm,SMILES
1,0.1 °C,O=C(O)/C=C/c1cc(CO)ccc1CO
2,0.7 °C,CC(C)c1cc(/C=C(\C#N)C(=O)NCCCc2ccccc2)cc(C(C)C)c1O
3,0.4 °C,CC(C)(C)c1cc(C=C2C(=O)C=CC2=O)cc(C(C)(C)C)c1O
4,0.3 °C,CC(C)n1cnc2c(NCc3ccccc3O)nc(NCCCO)nc21

row,SMILES,ΔTm
1,O=S(=O)(NCCNC/C=C/c1ccc(Br)cc1)c1cccc2cnccc12,1.7 °C
2,"COC(=O)[C@]1(O)C[C@@H]2O[C@@]1(C)n1c3ccccc3c3c4c(c5c6ccccc6n2c5c31)C(=O)NC4 (single isomer, unassigned)",3.9 °C

# — ChEMBL document CHEMBL1145498, “A systematic interaction map of validated kinase inhibitors with Ser/Thr kinases” (Proc Natl Acad Sci U S A, 2007)
